The results in this text go back to patent publication US10975075B2, “Imidazolonylquinolines and the use thereof as ATM kinase inhibitors” (priority 2015, dated 2021).

The test has as its system phosphorylation of CHK2 (phospho-Thr68) in HCT116 cells. The test is described as follows: Cellular pCHK2 assay (bleomycin-induced phosphorylation of CHK2 phospho-Thr68, immunofluorescence high content). The test is classed as cell-based, human. As to conditions: 10 μM bleomycin, 4 h. An excerpt: For the identification of substances which inhibit the phosphorylation of the protein kinase CHK2 at the amino acid threonine 68, an immunofluorescence-based “high content” analysis assay was used in HCT116 cells.
In vitro cell-based immunofluorescence assay for the identification of inhibitors of bleomycin-induced phosphorylation of CHK2 (phospho-Thr68) in the human colon carcinoma cell line HCT116:
HCT116 cells are sown out in a defined cell density in 384-well plates in culture medium (DMEM high glucose, 2 mM GlutaMax, 1 mM Na pyruvate, 10% FCS) and incubated overnight at 37° C. and 10% of CO2. On the following day, the test substances are added in a defined concentration range (1 nM to 30 μM) in combination with 10 μM bleomycin, where the concentration of the solvent DMSO is kept constant at 0.5%. […] Parallel staining of DNA with propidium iodide enables determination of the cell count. The pCHK2 signal is detected using a high-content imager (Molecular Devices IMX Ultra) and automatic image analysis using the MetaXpress software belonging to the instrument. The number of cell nuclei which have a pCHK2 signal above a defined background is determined.

In general, IC50 refers to the concentration at which inhibition is half-maximal. Turning to `COc1cc2ncc3c(c2cc1-c1cnn(C)c1)n(-c1cnn(C)c1)c(=O)n3C` [Compound Example 23, 7-Methoxy-3-methyl-1,8-bis-(1-methyl-1H-pyrazol-4-yl)-1,3-dihydroimidazo[4,5-c] quinolin-2-one], the IC50 is less than 200 nM.

For the molecule `COc1cc2ncc3c(c2cc1-c1cn[nH]c1)n(-c1ccncc1C)c(=O)n3C` [Compound Example 19, 7-Methoxy-3-methyl-1-(3-methylpyridin-4-yl)-8-(1 H-pyrazol-4-yl)-1,3-dihydro-imidazo[4,5-c]quinolin-2-one], the IC50 is less than 200 nM.

Take `COc1cc2ncc3c(c2cc1-c1cnn(C)c1)n(-c1c(C)n[nH]c1C)c(=O)n3C` [Example 118, 1-(3,5-Dimethyl-1H-pyrazol-4-yl)-7-methoxy-3-methyl-8-(1-methyl-1H-pyrazol-4-yl)-1,3-dihydroimidazo[4,5-c]-quinolin-2-one]: the IC50 is 200 to 1000 nM.
